Measurements from US9403873B2, “Peptides targeting receptor activator of nuclear factor-κB (RANK) and their applications” (UNIVERSITE DE NANTES, priority 2011, dated 2016).
pIC50: −log10 of the molar value. Ends that are not written are not given here.

Legend:
human CD14+ monocytes = format: cell-based
Source text: Human peripheral blood mononuclear cells (PBMCs) were isolated by centrifugation over Ficoll gradient (Sigma, Saint Quentin Fallavier, France). CD14^+ cells were magnetically labeled with CD14 Microbeads and positively selected by MACS technology (Miltenyi Biotec, Paris, France) as described previously (Duplomb et al. 2008). CD11b^+ monocytes were purified from murine bone marrow cells obtained by flushing the bone marrow from femora and tibiae of 4-week-old C57BL6 male mice, using MACS microbeads (Baud'huin et al. 2010). The purity of cell preparations was around 96%, as controlled by flow cytometry. Generation of osteoclasts from human CD14^+ and murine CD11b^+ monocytes was performed as described previously (Duplomb et al. 2008, Baud′huin et al. 2010). Briefly, purified cells were cultured in α-minimum essential medium (α-MEM, Gibco/Invitrogen, USA) with 10% fetal calf serum and 25 ng/mL human/murine macrophage colony-stimulating factor (M-CSF, R&D Systems, Abindgton, UK). After 3 days of culture, cell medium was replaced by fresh medium containing M-CSF and recombinant human RANKL (100 ng/mL, R&D system), supplemented with or without a polypeptide of interest (0.5-100 μM) or 50 ng/mL human OPG (R&D Systems) used as a reference inhibitor. Soluble cytokines, receptor and polypeptides were renewed every 3 days until multinucleated osteoclasts had formed. After 12 days of culture for CD14^+ cells and 15 days for CD11b^+ cells, osteoclasts were visualized by TRAP staining (Sigma, France) and cells formed with three or more nuclei were manually counted and analyzed statistically.

[1] = tested on: RANKL-induced signaling (Akt, p38, ERK, NF-κB) in RAW264.7 cells; test: Western blot of RANKL-induced signaling in RAW264.7 cells; format: cell-based, murine
Description: After treatment for 5, 10, 15, 30 or 60 minutes at 37° C., total cell lysates were obtained and protein concentrations were determined as described previously (Duplomb et al. 2008). For NF-κB pathway analysis, separate cytoplasmic and nuclear protein fractions were obtained using the NE-PER Nuclear and Cytoplasmic Extraction Kit (Thermo Scientific, UK). Proteins (40 μg) were run on 10% SDS—PAGE and transferred to Immobilon-P membranes (Millipore, Billerica, Mass., USA), which were then incubated with antibodies to Akt, phospho-Akt, ERK 1/2, phospho-ERK 1/2, p38, phospho-p38, IκBα, p105, p65, p50 and Rel B (Cell Signalling, Danvers, Mass., USA). The labeled proteins were detected using the ECL reagent (Pierce, Rockford, Ill., USA). β-Actin (total cell extract or cytoplasmic fraction), histone H3, and HDAC (nuclear fraction) were used as housekeeping proteins (Cell Signalling).
(§1) Murine RAW264.7 cells (ATCC) were cultured in αMEM (Invitrogen) supplemented with 10% FBS (Hyclone). Human embryonic kidney 293 cells (ATCC) were stably transduced with an expression-ready clone (Ex-00007-Lv105, OmicsLink™ Expression Clone, GeneCopoeia™) containing the ORF cDNA of RANK/TNFRSF11A. HEK-RANK cells were maintained in DMEM (Lonza), 10% FBS and 1 μg/mL puromycin.

[2] = tested on: HEK-RANK cells (human embryonic kidney cells overexpressing RANK); test: RANK signaling and receptor half-life study in HEK-RANK cells; format: cell-based
Description: (A) Inhibition of activation of Akt, p38 and ERK by Pep8 (50 μM) was assessed as inhibition of phosphorylation (p) in RAW264.7 cells using Western blot analysis with antibodies against phospho-Akt, phospho-p38 and phospho-ERK. Immunoblots were stripped and then reprobed with antibodies against Akt, p38 and ERK. β-Actin served as loading control. (B) Western blot analyses of NF-κB distribution in the presence or absence of 50 μM Pep8. After treatment with the polypeptide, RAW264.7 cells were fractionated into nuclear and cytoplasmic portions. Nuclear proteins (45 μg) were analyzed with anti-NF-κB p105, p50 and p65 antibodies, while cytoplasmic proteins (30 μg) were analyzed with anti-IκBα. For the non-canonical NF-κB pathway, RelB expression was analyzed in both fractions. β-Actin, HDAC1 and Histone H3 served as loading controls for the cytoplasmic and nuclear fractions, respectively. A representative experiment is shown; time after RANKL stimulation is indicated in parenthesis. (C) Receptor half-life study. […] RANK expression was determined with anti-RANK/TNFRSF11A.
as §1, with “HEK-RANK cells were maintained in DMEM (Lonza), 10% FBS and 1 μg/mL puromycin.” left out

[3] = tested on: mesenchymal stem cells (MSCs); test: Mineralization of mesenchymal stem cells (Alizarin red staining); format: cell-based; conditions: 100 μM
monocytes = test: Cytotoxicity on monocytes; format: cell-based; conditions: 100 μM
[4] = 50 μM, 15 minutes of RANKL treatment

NVLKLCSGE [Pep8, NVLKLCSGE]
pIC50 (human CD14+ monocytes): 4.40 | inhibitory activity on osteoclastogenesis (human CD14+ monocytes; 50 μM polypeptide, screen of 8 new polypeptides): inhibitory activity similar to that of the RANKL-targeting mimetics OP3-4 and WP9QY | number of TRAP-positive multinucleated cells, % of the number formed without the polypeptide (human CD14+ monocytes; 100 μM, human cultures): 39% | osteoclast development with polypeptide alone (human CD14+ monocytes; absence of RANKL): did not modulate osteoclast development | RANKL-induced degradation of IκBα and nuclear translocation of p50 and p65 ([1]; 50 μM): blocked | expression levels of RelB in cytoplasmic and nuclear fraction ([1]; 50 μM): no effect | RANKL-induced Akt phosphorylation ([1]; 50 μM, 5 minutes of RANKL treatment): exhibited an inhibitory effect | RANKL-induced phosphorylation of ERK [1, 4]: inhibited phosphorylation | RANKL-induced phosphorylation of p38 [1, 4]: inhibited phosphorylation | basal phosphorylation of p38 ([1]; absence of RANKL stimulation): decreased phosphorylation of p38 even in the absence of RANKL stimulation | activation of p38 after stimulation with RANKL [2]: strongly inhibited | degradation of RANK in presence of cycloheximide ([2]; CHX 4 μg/mL, Pep8 200 μM, compared with RANKL): lead to a degradation of RANK, although to a somewhat lesser extent | effect on mineralization of MSCs [3]: nor did the polypeptide at 100 μM exhibit any effect | cytotoxic effect (monocytes): no cytotoxic effect
